The NIST ThermoML archive (doi:10.1016/j.tca.2005.11.021)

Test: molar heat capacity at constant pressure
Settings: 101.33 kPa, Crystal, Small (less than 1 g) adiabatic calorimetry

N[C@@H](CCC(=O)[O-])C(=O)[O-].N[C@@H](CCC(=O)[O-])C(=O)[O-].O.O.O.O.O.O.O.O.O.[Ho+3].[Ho+3].[O-][Cl+3]([O-])([O-])O.[O-][Cl+3]([O-])([O-])O.[O-][Cl+3]([O-])([O-])[O-].[O-][Cl+3]([O-])([O-])[O-] [diholmium tetraperchlorate bis-l-glutamate nonahydrate]
Settings	molar heat capacity at constant pressure [J/K/mol]
78.47 K	416.36
79.95 K	427.06
81.58 K	448.95
83.14 K	457.5
84.69 K	466.74
86.44 K	480.65
88.37 K	490.26
90.58 K	502.33
93.05 K	521.47
95.51 K	537.31
97.87 K	558.72
100.23 K	562.37
102.52 K	570.54
104.79 K	579.03
107.01 K	584.28
109.19 K	599.35
111.54 K	612.05
114.01 K	619.47
116.69 K	633.45
119.55 K	640.47
122.36 K	656.69
125.12 K	670.24
127.84 K	678.7
130.52 K	691.49
133.16 K	703.15
136.41 K	717.73
140.25 K	728.41
144.03 K	745.38
147.75 K	759.44
151.88 K	781.07
156.39 K	802.41
160.82 K	822.03
165.17 K	841.38
169.46 K	860.32
173.69 K	880.13
177.85 K	903.04
181.91 K	962.58
185.82 K	1035.9
189.62 K	1053.8
193.38 K	1068
197.09 K	1084.5
200.76 K	1104.7
204.4 K	1116.6
208 K	1131.5
211.57 K	1149.2
215.09 K	1170.1
218.58 K	1180.3
222.04 K	1198
225.47 K	1211.6
228.86 K	1235.1
232.19 K	1241.6
235.57 K	1256.3
239.35 K	1265.1
243.62 K	1286.5
247.83 K	1297.2
252.02 K	1318.1
256.17 K	1324
260.28 K	1339.5
264.35 K	1355.8
268.38 K	1368.2
272.36 K	1390.1
276.3 K	1406.8
280.21 K	1418.2
284.86 K	1435.3
290.1 K	1457.8
295.36 K	1477.1
300.5 K	1499
305.57 K	1521.1
310.61 K	1529.2
315.6 K	1558.3
320.54 K	1577.6
325.43 K	1599.1
330.3 K	1607
335.02 K	1641.9
339.66 K	1649.4
344.14 K	1668.3
